Measurements taken from PubChem BioAssay (NCI).
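In this assay, cells in 96-well plates receive the compound at five concentrations for 48 hours. Endpoints are linearly interpolated between the surrounding concentrations. TGI: total growth inhibition.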 Where a SMILES comes first, the peptide text is derived from it. [ ]: non-standard residue; d: D form. The star is where a group is joined. Octanoyl = CCCCCCCC(=O)*; Aib = CC(C)(N)C(=O)O; tBu = CC(C)(C)*

Legend:
Experiment in all cases: NCI tumour cell line growth inhibition, 48 h
[1] = tested on: 786-0 renal
[2] = tested on: A498 renal
[3] = tested on: A549 NSCLC
[4] = tested on: ACHN renal
[5] = tested on: BT-549 breast
[6] = tested on: CAKI-1 renal
[7] = tested on: CCRF-CEM leukemia
[8] = tested on: COLO 205 colon
[9] = tested on: DU-145 prostate
[10] = tested on: EKVX NSCLC
[11] = tested on: HCC-2998 colon
[12] = tested on: HCT-116 colon
[13] = tested on: HCT-15 colon
[14] = tested on: HL-60(TB) leukemia
[15] = tested on: HOP-62 NSCLC
[16] = tested on: HOP-92 NSCLC
[17] = tested on: HS 578T breast
[18] = tested on: HT29 colon
[19] = tested on: IGROV1 ovarian
[20] = tested on: K-562 leukemia
[21] = tested on: KM12 colon
[22] = tested on: LOX IMVI melanoma
[23] = tested on: M14 melanoma
[24] = tested on: MALME-3M melanoma
[25] = tested on: MCF7 breast
[26] = tested on: MDA-MB-231 breast
[27] = tested on: MDA-MB-435
[28] = tested on: MDA-N
[29] = tested on: MOLT-4 leukemia
[30] = tested on: NCI-H226 lung
[31] = tested on: NCI-H23 lung
[32] = tested on: NCI-H460 lung
[33] = tested on: NCI-H522 lung
[34] = tested on: NCI/ADR-RES ovarian
[35] = tested on: OVCAR-3 ovarian
[36] = tested on: OVCAR-4 ovarian
[37] = tested on: OVCAR-5 ovarian
[38] = tested on: OVCAR-8 ovarian
[39] = tested on: PC-3 prostate
[40] = tested on: RPMI-8226 leukemia
[41] = tested on: RXF 393 renal
[42] = tested on: SF-268 CNS
[43] = tested on: SF-295 CNS
[44] = tested on: SK-MEL-2 melanoma
[45] = tested on: SK-MEL-28 melanoma
[46] = tested on: SK-MEL-5 melanoma
[47] = tested on: SK-OV-3 ovarian
[48] = tested on: SN12C renal
[49] = tested on: SNB-19 CNS
[50] = tested on: SNB-75 CNS
[51] = tested on: SR leukemia
[52] = tested on: SW-620 colon
[53] = tested on: T-47D breast
[54] = tested on: TK-10 renal
[55] = tested on: U251 CNS
[56] = tested on: UACC-257 melanoma
[57] = tested on: UACC-62 melanoma
[58] = tested on: UO-31 renal
[59] = tested on: SF-539 CNS

## CN(C)c1ccc(/C=C(\NC(=O)c2ccccc2)C2NC(Cc3c[nH]c4ccccc34)C(=O)O2)cc1 (stereo not drawn)
[1]
  TGI: > 100 µM
[2]
  TGI: > 100 µM
[3]
  TGI: > 100 µM
[4]
  TGI: > 100 µM
[5]
  TGI: > 45.2 µM
[6]
  TGI: > 100 µM
[7]
  TGI: > 100 µM
[8]
  TGI: > 39.3 µM
[9]
  TGI: > 100 µM
[10]
  TGI: > 100 µM
[11]
  TGI: > 100 µM
[12]
  TGI: > 100 µM
[13]
  TGI: > 93.5 µM
[14]
  TGI: 39.9 µM
[15]
  TGI: > 100 µM
[16]
  TGI: > 69.3 µM
[17]
  TGI: > 54.9 µM
[18]
  TGI: > 100 µM
[19]
  TGI: > 100 µM
[20]
  TGI: > 100 µM
[21]
  TGI: > 100 µM
[22]
  TGI: > 54.3 µM
[23]
  TGI: > 100 µM
[24]
  TGI: 79.6 µM
[25]
  TGI: > 100 µM
[26]
  TGI: > 100 µM
[27]
  TGI: > 100 µM
[28]
  TGI: > 100 µM
[29]
  TGI: > 100 µM
[30]
  TGI: > 100 µM
[31]
  TGI: > 100 µM
[32]
  TGI: > 74.5 µM
[33]
  TGI: 24.4 µM
[34]
  TGI: > 100 µM
[35]
  TGI: > 100 µM
[36]
  TGI: > 100 µM
[37]
  TGI: > 100 µM
[38]
  TGI: > 100 µM
[39]
  TGI: > 100 µM
[40]
  TGI: > 49 µM
[41]
  TGI: > 100 µM
[42]
  TGI: > 100 µM
[43]
  TGI: > 100 µM
[44]
  TGI: > 100 µM
[45]
  TGI: > 100 µM
[46]
  TGI: > 100 µM
[47]
  TGI: > 100 µM
[48]
  TGI: > 100 µM
[49]
  TGI: > 100 µM
[50]
  TGI: > 100 µM
[51]
  TGI: > 100 µM
[52]
  TGI: > 100 µM
[53]
  TGI: > 100 µM
[54]
  TGI: > 38.7 µM
[55]
  TGI: > 100 µM
[56]
  TGI: > 100 µM
[57]
  TGI: > 100 µM
[58]
  TGI: > 100 µM

## CCCCCCCC(=O)NC(C)(C)C(=O)NC(COC(C)(C)C)C(=O)NC(CC(C)C)C(=O)NC(C)(C)C(=O)NC(COC(C)(C)C)C(=O)NC(COC(C)(C)C)C(=O)NC(CC(C)C)C(=O)NC(C)(C)C(=O)NC(COC(C)(C)C)C(=O)NC(C(=O)NC(CC(C)C)C(=O)OC)C(C)CC (stereo not drawn) (Octanoyl-[Aib]S(tBu)L[Aib]S(tBu)S(tBu)L[Aib]S(tBu)IL-OMe; configuration not given here)
[1]
  TGI: 23.4 µM
[2]
  TGI: 14 µM
[3]
  TGI: > 25 µM
[4]
  TGI: 20.8 µM
[5]
  TGI: 13.1 µM
[6]
  TGI: > 25 µM
[7]
  TGI: 11.9 µM
[8]
  TGI: 15.8 µM
[9]
  TGI: > 25 µM
[10]
  TGI: 16.3 µM
[12]
  TGI: > 25 µM
[13]
  TGI: > 25 µM
[14]
  TGI: 15.6 µM
[15]
  TGI: > 25 µM
[16]
  TGI: 10.6 µM
[17]
  TGI: > 25 µM
[18]
  TGI: 11.9 µM
[19]
  TGI: 12.5 µM
[20]
  TGI: > 25 µM
[21]
  TGI: 22 µM
[22]
  TGI: 10.6 µM
[23]
  TGI: > 25 µM
[25]
  TGI: 17 µM
[26]
  TGI: 15.9 µM
[27]
  TGI: > 25 µM
[28]
  TGI: > 25 µM
[29]
  TGI: > 25 µM
[30]
  TGI: 21.1 µM
[31]
  TGI: 12.7 µM
[32]
  TGI: 13.8 µM
[33]
  TGI: > 25 µM
[34]
  TGI: > 25 µM
[35]
  TGI: 10.9 µM
[36]
  TGI: > 25 µM
[37]
  TGI: 22.3 µM
[38]
  TGI: > 25 µM
[39]
  TGI: 9.36 µM
[40]
  TGI: 11.2 µM
[41]
  TGI: 9.99 µM
[42]
  TGI: > 25 µM
[43]
  TGI: > 25 µM
[59]
  TGI: > 25 µM
[44]
  TGI: 13.5 µM
[45]
  TGI: > 25 µM
[46]
  TGI: 16.2 µM
[47]
  TGI: > 25 µM
[48]
  TGI: 24.9 µM
[49]
  TGI: > 25 µM
[50]
  TGI: 16.4 µM
[51]
  TGI: 17.9 µM
[52]
  TGI: > 25 µM
[53]
  TGI: 23.5 µM
[54]
  TGI: 21.8 µM
[55]
  TGI: 12.8 µM
[56]
  TGI: > 25 µM
[57]
  TGI: 23.7 µM
[58]
  TGI: > 25 µM

## CC(C)NC(=O)OCc1c(COC(=O)NC(C)C)n(C)c2c1ccc1ccccc12
[1]
  TGI: 2.5 µM
[2]
  TGI: 3.01 µM
[3]
  TGI: 23.5 µM
[4]
  TGI: 2.82 µM
[5]
  TGI: 1.58 µM
[6]
  TGI: 1.94 µM
[8]
  TGI: 3.83 µM
[9]
  TGI: 14.4 µM
[10]
  TGI: 10.4 µM
[11]
  TGI: 9.86 µM
[12]
  TGI: 2.82 µM
[13]
  TGI: 3.09 µM
[14]
  TGI: 22.4 µM
[15]
  TGI: 16.2 µM
[16]
  TGI: 2.6 µM
[17]
  TGI: 7.12 µM
[18]
  TGI: 13 µM
[19]
  TGI: 3.23 µM
[20]
  TGI: > 20 µM
[21]
  TGI: 15.5 µM
[22]
  TGI: 2.6 µM
[23]
  TGI: 3.2 µM
[24]
  TGI: 2.24 µM
[25]
  TGI: 1.88 µM
[26]
  TGI: 3.6 µM
[27]
  TGI: 4.9 µM
[28]
  TGI: 4.22 µM
[29]
  TGI: > 25.4 µM
[30]
  TGI: 5.43 µM
[31]
  TGI: 3.17 µM
[32]
  TGI: 7.7 µM
[33]
  TGI: 0.298 µM
[34]
  TGI: 7.39 µM
[35]
  TGI: 12.4 µM
[36]
  TGI: 9.19 µM
[37]
  TGI: 7.43 µM
[38]
  TGI: 4.5 µM
[39]
  TGI: 17.1 µM
[40]
  TGI: 3.92 µM
[41]
  TGI: 2.65 µM
[42]
  TGI: 6.2 µM
[43]
  TGI: 17.2 µM
[59]
  TGI: 3.5 µM
[44]
  TGI: 4.09 µM
[45]
  TGI: 5.75 µM
[46]
  TGI: 6.63 µM
[47]
  TGI: 22.2 µM
[48]
  TGI: 5.3 µM
[49]
  TGI: 3.74 µM
[50]
  TGI: 7.11 µM
[51]
  TGI: > 100 µM
[52]
  TGI: 2.4 µM
[53]
  TGI: 1.48 µM
[54]
  TGI: 3.04 µM
[55]
  TGI: 4.24 µM
[56]
  TGI: 2.99 µM
[57]
  TGI: 2.92 µM
[58]
  TGI: 4.09 µM
